Reference: US20240216490A1, “Autoantigens Engineered to Suppress Autoimmune Response” (Osprey Biopharmaceuticals, Inc., priority 2022, published 2024)

What was measured:
Type in all cases: in vivo, mouse
C57BL6 mice = assay: prophylactic tolerization and anti-drug antibody (ADA) production in C57BL6 mice (Example 4); settings: 4 weekly s.c. doses of 4 mg/kg; serum day 28
Description: To evaluate the production of antibodies specific to adalimumab, two control groups of C57BL6 mice were immunized with adalimumab or the individual SigL-conjugated adalimumab antibodies. Conjugates bear BPC-Neu5Gc-based Siglec Ligand-Linker structures with affinity for Siglec-2. On study day −1, animals were randomized into treatment groups based on body weight. On study day 0, animals were bled for baseline serum and then injected subcutaneously (s.q.) with adalimumab or the individual SigL-conjugated adalimumab antibodies once every seven days for a total of four injections over twenty-eight days. The individual antigens were prepared by making a 0.8 mg/ml antigen solution in sterile buffered saline. Animals were then injected with 0.1 ml (˜4 ml/kg) of the 0.8 mg/ml antigen on the rear flanks. The total dose based on a 20 g mouse would be 4 mg/kg per injection. […]
Anti-drug antibody (ADA) response assays were performed on 96-well assay plates (Nunc Plates, Black 96-Well Immuno Plates, Thermo Scientific, 437111) coated with antigen, as follows. […] The excitation and emission settings for the QuantaBlu Fluorogenic Peroxide Substrates are 325 nm and 420 nm and the relative florescence units were measured using a SpectraMax plate reader. […] Titers were determined by the dilution of serum that gives a 2× OD above background.

C57Bl/6 mice [1] = assay: durability of tolerization with late adalimumab challenges (Example 12); settings: 4 weekly 4 mg/kg s.c. doses, then adalimumab 4 mg/kg at days 91, 147, 174, 202
Procedure: To evaluate the durability of the induced tolerization status established with the SigL-conjugated adalimumab (as exemplified in Examples 4 and 11), female C57Bl/6 mice (n=5 per group) were primed with four subcutaneous doses of either SigL-conjugated adalimumab (4 mg/kg) or unconjugated adalimumab (4 mg/kg) given seven days apart over a 28 day period. Animals in both groups were later challenged with single subcutaneous doses of unconjugated adalimumab (4 mg/kg) at days 91, 147, 174, and 202. Animals were injected with 0.1 ml (˜4 mg/kg) of the 0.8 mg/ml test article preparations on the rear flanks. The total dose based on a 20 g mouse would be 4 mg/kg per injection per dose. Bleeds were taken for anti-drug antibody analysis at days 0, 28, 112, 146, 168, 201, and 232. Anti-drug antibody (ADA) response assays were performed as described in Example 4.

C57Bl/6 mice [2] = assay: ex vivo flow cytometry of splenic adalimumab-specific and germinal center B cells (Example 13)
Procedure: To measure B cell activation following the described stimulation, cells were washed twice by spinning cells at 1200 rpm for 5 minutes and rinsing with PBS. Cells were then resuspended in staining buffer (1% bovine serum albumin/0.1% sodium azide/1× phosphate buffered saline) and incubated with Fc-block (BD Biosciences) for five minutes before the addition of anti-CD45, anti-CD19, anti-CD69, and anti-CD86 antibodies (BD Biosciences, Biolegend, Fisher). Cells were then incubated in the dark for an additional 30 minutes at room temperature. Cells were then washed three times with staining buffer and then analyzed on a ZE5 Cell Analyzer (BioRad). Data analysis was performed using FlowJo (v10.8.0) software.
For studies evaluating the generation of adalimumab-specific B cells, C57Bl/6 mice were dosed with a single subcutaneous dose of either SigL-adalimumab (4 mg/kg) or unconjugated adalimumab (4 mg/kg). Splenocytes were then isolated from animals seven days after dosing. In the experiment depicted in FIG. 15, mice that had been dosed with unconjugated adalimumab (4 mg/kg) on Day 0 were dosed again on Day 3 with SigL-adalimumab (4 mg/kg, subcutaneous) or vehicle (PBS) prior to splenocyte isolation on Day 7 of the study.
For the evaluation of germinal center formation (FIG. 14), C57Bl/6 mice were dosed with a single subcutaneous dose of either SigL-adalimumab (4 mg/kg), unconjugated adalimumab (4 mg/kg) or vehicle (PBS) on Day 0. Animals in each arm of this study were then dosed on Day 7 with either a single subcutaneous dose of SigL-adalimumab (4 mg/kg) or unconjugated adalimumab (4 mg/kg). Formation of adalimumab-specific B cells and germinal center B cells were then analyzed on Day 14 of the study as described below.
At the specified time points described above, splenocytes were harvested from individual animals and made into single cell suspension, subjected to red cell lysis using ACK buffer, and plated at a concentration of 200,000 cells per well in round bottom 96 well plates in complete RPMI media. Cells were then processed for flow cytometry as described above. For adalimumab-specific B cells, splenocytes were stained with anti-CD4, ant-CD8a, anti-F4/80, anti-LY6G, anti-CD19, anti-IgD (BD Biosciences, Biolegend, Fisher, eBioscience) and adalimumab-[…] conjugate (Invitrogen). For germinal center B cells, splenocytes were stained with anti-CD45, anti-CD19, anti-GL7, and anti-CD95. Cells were then incubated in the dark for an additional 30 minutes at room temperature. Cells were then washed three times with staining buffer and then analyzed on a ZE5 Cell Analyzer (BioRad). Data analysis was performed using FlowJo (v10.8.0) software.

Substance: adalimumab
- immunogenicity (anti-drug antibody response, serum IgG titer) (C57BL6 mice): highly immunogenic
- anti-drug antibody level (C57Bl/6 mice [1]): strong, saturating level of ADA
- presence of adalimumab-specific B cells (CD45+CD19+IgD−Adal+) in spleen (C57Bl/6 mice [2]; 7 days post single 4 mg/kg s.c. dose): detected
- splenic adalimumab-specific B cells (C57Bl/6 mice [2]; day 14, s.c. dosing days 0 and 7, conjugate day 0 followed by adalimumab day 7): induces
- mean abundance of adalimumab-specific B cells (C57Bl/6 mice [2]; spleen, 7 days post single 4 mg/kg s.c. dose): 0.2 % of splenic IgD^− B cells
- germinal center B cells (CD19+CD95+GL7+) (C57Bl/6 mice [2]; spleen, day 14, dosing days 0 and 7): increase in the abundance of germinal center B cells
